Among the data in PMC9659204, “Biochemical Characterization of Pyranose Oxidase from Streptomyces canus—Towards a Better Understanding of Pyranose Oxidase Homologues in Bacteria” (International Journal of Molecular Sciences, 2022) are Km values, retold here.

The test system of this assay is T1, ScPOx (pyranose oxidase from Streptomyces canus).
T1 construct: synthetic codon-optimised gene in pET-21d+ (NcoI/HindIII), C-terminal His6 tag, E. coli BL21(DE3); 52 kDa monomer, noncovalent FAD
Briefly: steady-state kinetics, spectrophotometric. Type of assay: biochemical. The settings on record: apparent; electron acceptor; 4 M D-xylose as electron donor; 50 mM potassium phosphate pH 6.5; 30 °C. From the text: steady-state kinetics, spectrophotometric on ScPOx (pyranose oxidase from Streptomyces canus)

As a reminder, the Km is the substrate concentration at which the rate is half of its maximum. As to `O=C1C(Cl)=CC(=Nc2ccc(O)cc2)C=C1Cl` [DCIP], the Km worked out at 50 ± 10 µM.
The value for `O=C1C=CC(=O)C=C1` [p-BQ] was 130 ± 20 µM.
